The test system of one assay is Pseudomonas aeruginosa. Briefly: In vitro minimum inhibitory concentration against Pseudomonas aeruginosa IID1210. The format is functional.
The subject of a further assay is Staphylococcus aureus. Put plainly: In vitro minimum inhibitory concentration against Staphylococcus aureus Smith. It counts as functional.
Another assay has as its system Escherichia coli. Briefly: In vitro minimum inhibitory concentration against Escherichia coli NIHJ JC-2. The format is functional.
In a further assay the test system is Streptococcus pneumoniae. Put plainly: In vitro minimum inhibitory concentration against Streptococcus pneumoniae type III. The format is functional.
The target in a further assay is DNA gyrase (Staphylococcus aureus, UniProt P0A0K8+P20831). Put plainly: Inhibitory concentration against DNA gyrase of Staphylococcus aureus. The format is protein-complex assay.
Chain of DNA gyrase (P0A0K8 whole entry): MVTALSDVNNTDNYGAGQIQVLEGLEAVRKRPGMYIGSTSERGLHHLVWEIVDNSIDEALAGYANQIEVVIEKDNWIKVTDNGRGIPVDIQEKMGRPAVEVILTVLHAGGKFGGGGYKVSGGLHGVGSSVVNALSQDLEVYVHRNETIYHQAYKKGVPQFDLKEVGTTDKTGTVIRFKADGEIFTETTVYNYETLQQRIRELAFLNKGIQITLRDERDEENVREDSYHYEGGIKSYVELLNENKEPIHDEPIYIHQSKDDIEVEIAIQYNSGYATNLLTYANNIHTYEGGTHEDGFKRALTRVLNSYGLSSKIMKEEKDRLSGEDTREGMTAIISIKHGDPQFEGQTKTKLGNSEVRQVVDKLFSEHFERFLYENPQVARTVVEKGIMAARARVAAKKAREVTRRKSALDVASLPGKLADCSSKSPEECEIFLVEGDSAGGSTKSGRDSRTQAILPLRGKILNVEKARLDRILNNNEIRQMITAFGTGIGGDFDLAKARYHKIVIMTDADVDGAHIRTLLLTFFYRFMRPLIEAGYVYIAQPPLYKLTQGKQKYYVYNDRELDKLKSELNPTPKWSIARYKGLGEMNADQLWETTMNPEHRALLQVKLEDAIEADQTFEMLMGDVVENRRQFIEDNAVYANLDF
Chain of DNA gyrase (P20831 whole entry): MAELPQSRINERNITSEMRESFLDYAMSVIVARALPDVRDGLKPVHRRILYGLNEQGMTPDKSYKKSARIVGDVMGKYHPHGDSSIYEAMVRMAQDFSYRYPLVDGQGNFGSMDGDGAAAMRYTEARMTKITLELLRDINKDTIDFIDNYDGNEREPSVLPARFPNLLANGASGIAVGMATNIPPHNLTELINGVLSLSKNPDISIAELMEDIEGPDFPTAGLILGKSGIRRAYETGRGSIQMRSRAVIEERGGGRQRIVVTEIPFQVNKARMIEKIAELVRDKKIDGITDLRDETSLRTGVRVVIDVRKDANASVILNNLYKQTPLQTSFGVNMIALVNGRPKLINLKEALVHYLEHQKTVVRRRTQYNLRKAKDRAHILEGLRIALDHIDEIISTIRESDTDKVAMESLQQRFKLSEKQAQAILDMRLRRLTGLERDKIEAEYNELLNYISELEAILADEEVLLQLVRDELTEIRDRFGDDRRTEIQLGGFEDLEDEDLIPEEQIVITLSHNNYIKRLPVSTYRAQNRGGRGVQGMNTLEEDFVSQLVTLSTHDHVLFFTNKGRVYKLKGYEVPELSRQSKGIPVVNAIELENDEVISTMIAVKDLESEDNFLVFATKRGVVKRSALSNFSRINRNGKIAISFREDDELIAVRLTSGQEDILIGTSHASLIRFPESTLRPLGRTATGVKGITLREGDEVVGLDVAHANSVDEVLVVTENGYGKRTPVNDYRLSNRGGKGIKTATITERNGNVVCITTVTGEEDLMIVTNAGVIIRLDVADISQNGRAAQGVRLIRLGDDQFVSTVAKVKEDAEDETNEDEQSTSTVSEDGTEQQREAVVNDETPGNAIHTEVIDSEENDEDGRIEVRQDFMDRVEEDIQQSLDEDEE

As a reminder, the MIC is the lowest concentration found to suppress growth. A higher MIC goes with a need for much substance. As usually defined, the IC50 is the midpoint of a concentration-inhibition curve. Low readings indicate greater potency, high ones weaker potency.

Converted amounts (≈) assume the structure as drawn.

`COc1c(N2CCC(N)C2)c(F)cc2c(=O)c(C(=O)O)cn(/C=C/F)c12` (centres undefined): the MIC was 6.25 µg/mL (≈ 17.1 µM) against Pseudomonas aeruginosa, 6.25 µg/mL (≈ 17.1 µM) against Staphylococcus aureus, 0.1 µg/mL (≈ 0.274 µM) with Escherichia coli and 12.5 µg/mL (≈ 34.2 µM) in the assay with Streptococcus pneumoniae.

With `NC1CCN(c2cc3c(cc2F)c(=O)c(C(=O)O)cn3/C=C/F)C1` (centres undefined), the MIC amounted to 3.13 µg/mL (≈ 9.33 µM) against Pseudomonas aeruginosa, 1.56 µg/mL (≈ 4.65 µM) in the assay with Staphylococcus aureus, 0.2 µg/mL (≈ 0.596 µM) in the assay with Escherichia coli and 6.25 µg/mL (≈ 18.6 µM) against Streptococcus pneumoniae.

`NC1CCN(c2cc3c(cc2F)c(=O)c(C(=O)O)cn3/C=C\F)C1` (centres undefined): the minimal inhibitory concentration (MIC) is 0.78 µg/mL (≈ 2.33 µM) against Pseudomonas aeruginosa, 0.39 µg/mL (≈ 1.16 µM) in the assay with Staphylococcus aureus, 0.05 µg/mL (≈ 0.149 µM) with Escherichia coli and 3.13 µg/mL (≈ 9.33 µM) in the assay on Streptococcus pneumoniae.

As for `COc1c(N2CCN(C)CC2)c(F)cc2c(=O)c(C(=O)O)cn(/C=C\F)c12`, the MIC against Pseudomonas aeruginosa is 3.13 µg/mL (≈ 8.25 µM); against Staphylococcus aureus, 0.39 µg/mL (≈ 1.03 µM); in the assay on Escherichia coli it was 0.025 µg/mL (≈ 0.0659 µM); with Streptococcus pneumoniae it was 3.13 µg/mL (≈ 8.25 µM).

Turning to `CN1CCN(c2c(F)cc3c(=O)c(C(=O)O)cn(/C=C\F)c3c2F)CC1`, the MIC against Pseudomonas aeruginosa amounted to 1.56 µg/mL (≈ 4.25 µM); in the assay on Staphylococcus aureus it was 0.39 µg/mL (≈ 1.06 µM); in the assay on Escherichia coli it was 0.025 µg/mL (≈ 0.0681 µM); in the assay on Streptococcus pneumoniae it was 3.13 µg/mL (≈ 8.52 µM). Further, the IC50 against DNA gyrase is 197 µM.

With `NC1CCN(c2c(F)cc3c(=O)c(C(=O)O)cn(/C=C\F)c3c2F)C1` (centres undefined), the MIC came out at 0.39 µg/mL (≈ 1.1 µM) against Pseudomonas aeruginosa, 0.2 µg/mL (≈ 0.566 µM) in the assay with Staphylococcus aureus, 0.05 µg/mL (≈ 0.142 µM) in the assay on Escherichia coli and 0.78 µg/mL (≈ 2.21 µM) against Streptococcus pneumoniae.

With `CN1CCN(c2cc3c(cc2F)c(=O)c(C(=O)O)cn3/C=C\F)CC1`, the MIC with Pseudomonas aeruginosa is 1.56 µg/mL (≈ 4.47 µM); in the assay on Staphylococcus aureus, 0.2 µg/mL (≈ 0.573 µM); in the assay with Escherichia coli, 0.025 µg/mL (≈ 0.0716 µM); with Streptococcus pneumoniae, 3.13 µg/mL (≈ 8.96 µM).

In the case of `CN1CCN(c2cc3c(cc2F)c(=O)c(C(=O)O)cn3/C=C/F)CC1`, the MIC stood at 6.25 µg/mL (≈ 17.9 µM) against Pseudomonas aeruginosa, 3.13 µg/mL (≈ 8.96 µM) against Staphylococcus aureus, 0.2 µg/mL (≈ 0.573 µM) in the assay on Escherichia coli and 100 µg/mL (≈ 286 µM) against Streptococcus pneumoniae.

`CN1CCN(c2c(F)cc3c(=O)c(C(=O)O)cn(/C=C/F)c3c2F)CC1`: the MIC with Pseudomonas aeruginosa was 12.5 µg/mL (≈ 34 µM); against Staphylococcus aureus it was 12.5 µg/mL (≈ 34 µM); against Escherichia coli, 0.39 µg/mL (≈ 1.06 µM); in the assay on Streptococcus pneumoniae, > 50 µg/mL. For the same compound, the IC50 at DNA gyrase was 1810 µM.

As for `NC1CCN(c2c(F)cc3c(=O)c(C(=O)O)cn(/C=C/F)c3c2F)C1` (centres undefined), the MIC with Pseudomonas aeruginosa worked out at 1.56 µg/mL (≈ 4.42 µM); against Staphylococcus aureus it was 3.13 µg/mL (≈ 8.86 µM); with Escherichia coli it was 0.2 µg/mL (≈ 0.566 µM); against Streptococcus pneumoniae, 12.5 µg/mL (≈ 35.4 µM).

As to `COc1c(N2CCC(N)C2)c(F)cc2c(=O)c(C(=O)O)cn(/C=C\F)c12` (centres undefined), the MIC in the assay with Pseudomonas aeruginosa turned out to be 1.56 µg/mL (≈ 4.27 µM); against Staphylococcus aureus, 0.39 µg/mL (≈ 1.07 µM); in the assay with Escherichia coli it was 0.0125 µg/mL (≈ 0.0342 µM); in the assay on Streptococcus pneumoniae, 1.56 µg/mL (≈ 4.27 µM).

In the case of `COc1c(N2CCN(C)CC2)c(F)cc2c(=O)c(C(=O)O)cn(/C=C/F)c12`, the MIC worked out at 25 µg/mL (≈ 65.9 µM) with Pseudomonas aeruginosa, 6.25 µg/mL (≈ 16.5 µM) in the assay on Staphylococcus aureus, 0.2 µg/mL (≈ 0.527 µM) in the assay on Escherichia coli and 50 µg/mL (≈ 132 µM) with Streptococcus pneumoniae.

In the case of `O=C(O)c1cn(C2CC2)c2cc(N3CCNCC3)c(F)cc2c1=O` [CIPROFLOXACIN], the MIC in the assay on Pseudomonas aeruginosa is 0.2 µg/mL (≈ 0.604 µM); against Staphylococcus aureus it was 0.2 µg/mL (≈ 0.604 µM); against Escherichia coli, ≤ 0.0063 µg/mL; in the assay with Streptococcus pneumoniae it was 0.78 µg/mL (≈ 2.35 µM).

As for `CN1CCN(c2c(F)cc3c(=O)c(C(=O)O)cn(CCF)c3c2F)CC1` [FLEROXACIN], the MIC in the assay with Pseudomonas aeruginosa stood at 1.56 µg/mL (≈ 4.22 µM); in the assay with Staphylococcus aureus, 0.39 µg/mL (≈ 1.06 µM); in the assay on Escherichia coli, 0.025 µg/mL (≈ 0.0677 µM); with Streptococcus pneumoniae it was 3.13 µg/mL (≈ 8.47 µM). For the same compound, the midpoint of inhibition at DNA gyrase, the IC50, lay at 185 µM.

The record behind these values is ChEMBL document CHEMBL1143629, “Synthesis and antibacterial activity of 1-(2-fluorovinyl)-7-substituted-4-quinolone-3-carboxylic acid derivatives, conformationally restricted analogues of fleroxacin” (J Med Chem, 2005).
